Measurements taken from patent US20190022117A1, “COMBINATION THERAPY” (NuCana plc, priority 2015, published 2019).

System: SKOV3 cells
Experiment: Sulforhodamine B (SRB) assay, single agent
Assay type: cell-based
Details: 24 hours exposure, SRB assay on day 4
Protocol: SKOV3 cells were purchased from American Type Culture Collection (ATCC). They were cultured at 37° C. and 5% CO2 in Gibco™ RMPI Medium 1640+GlutaMAX™-I (Life Technologies; 61870-010) with 10% Gibco™ FBS (Life Technologies; 10270-106) and 1% Gibco™ Penicillin-Streptomycin (Life Technologies; Ser. No. 15/140,122), known as complete medium, in a cell culture flask. Cisplatin was purchased from TEVA UK Limited (PL 00289/1146). Fluvastatin and Sulforaphane were both purchased from Merck Millipore Corporation (Catalogue numbers 344096 and 574215 respectively). (S)-NUC-1031 was provided by NuCana® Ltd.
SKOV3 cells were plated at 250 cells in 200 μl per well in the middle 60 wells of Costar® 3596 96-well plates, with the outer 36 wells filled with 200 μl PBS each. The cells were allowed to grow in complete medium for 48 hours before different drug compounds were added in. For single agent, cisplatin, (S)-NUC-1031, fluvastatin and sulforaphane in complete medium at 10 different concentrations were added into the middle 60 wells (Day 0). Each concentration was loaded in sextuplicate. Cells were exposed to the compounds for 24 hours and the compounds were replaced by pure complete medium. The experiment with fluvastatin was repeated with 4-day exposure instead of 24 hours. The plates were fixed with 50 μl 25% TCA solution at 4° C. for 60 minutes on day 4 after the drug compounds were added for Sulforhodamine B assay (see below).
After adding the TCA solution, the plates were washed under running tap water 10 times and were allowed to dry in the oven at 50° C. The cells were then stained with 50 μl SRB dye, and the dye was washed off with 1% glacial acetic acid for 4 times 30 minutes after SRB addition. The plates were then dried in the oven. SRB dye was allowed to dissolve in 150 μl 10 mM Tris buffer solution for 60 minutes on a rocker. The plates were read on Biohit BP800 Microplate Reader (Biohit Healthcare) and the absorbance was measured at 540 nm. […]

## C[C@H](NP(=O)(OC[C@H]1O[C@@H](n2ccc(N)nc2=O)C(F)(F)[C@H]1O)Oc1ccccc1)C(=O)OCc1ccccc1 (stereo partly drawn) [NUC-1031, 2′-Deoxy-2′,2′-difluoro-D-cytidine-5′-O-[phenyl (benzoxy-L-alaninyl)] phosphate]
  IC50: could not be calculated due to unobservable inhibitory effects
